Results as given in patent US11000033B2, “Ketone or oxime compound, and herbicide” (NISSAN CHEMICAL CORPORATION, priority 2014, dated 2021).

Tests used:
Type in all cases: in vivo
[1] = tested on: directly sowed rice plant; assay: Test Example 3: effect on crop by foliage application, Wagner pot (symbol b); conditions: application herbicide amount 320 g/ha
Procedure, shortened: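 Greenhouse culture at 25–30 °C of seeded rice, Cyperus difformis, Leptochloa chinensis and Echinochloa crus-galli var. crus-galli, in alluvial soil held under 0.1–0.5 cm of water in a Wagner pot.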

Stellaria media = assay: Test Example 4: herbicidal effect by soil treatment (symbol P); conditions: 320 g/ha
Procedure, shortened: (§1)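 Seeds were sown in sterilized diluvial soil, covered with about 1.5 cm of soil, and the soil surface was sprayed with a water-diluted emulsion of the compound at a predetermined rate. Plants grew in a greenhouse at 25° C. to 30° C.; effects were scored visually 3 weeks after application.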

soybean [2] = assay: Test Example 4: effect on crop by soil treatment (symbol d); conditions: 320 g/ha
Procedure, shortened: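 Greenhouse culture at 25° C. to 30° C. followed sowing of seed in spots on sterilized diluvial soil with a soil cover close to 1.5 cm thick.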

Veronica persica = assay: Test Example 4: herbicidal effect by soil treatment (symbol R); conditions: 320 g/ha
Procedure, shortened: as §1

Monochoria vaginalis = assay: Test Example 2: herbicidal activity, application during weed generation in submerged conditions (symbol C); conditions: Table 23; application herbicide amount 320 g/ha; grade 0-5 by criteria of Test Example 1
Procedure, shortened: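 Read-out: herbicidal effect on each species rated on a visual scale 3 weeks after treatment. Plants were raised together from seed in flooded alluvial soil (4 cm water) at 25° C. to 30° C. and treated at one to two leaves by water-surface application of diluted emulsion.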

Galium spurium = assay: Test Example 5: herbicidal effect by foliage application, plastic box (symbol Q); conditions: 320 g/ha, 3 weeks after application
Procedure, shortened: (§2)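 After sowing into sterilized diluvial soil and growing two weeks under glass at 25° C. to 30° C., seedlings receive a uniform foliar spray of diluted emulsion. Damage is judged visually three weeks on.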

Setaria viridis [3] = assay: Test Example 4: herbicidal effect by soil treatment (symbol G); conditions: 320 g/ha
Procedure, shortened: as §1

[4] = tested on: Echinochloa crus-galli var. crus-galli; assay: Test Example 5: herbicidal effect by foliage application, plastic box (symbol H); conditions: 320 g/ha, 3 weeks after application
Procedure, shortened: as §2

soybean [5] = assay: Test Example 5: effect on crop by foliage application, plastic box (symbol d); conditions: 320 g/ha, 3 weeks after application
Procedure, shortened: (§3)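 Greenhouse culture at 25° C. to 30° C. followed spot-like sowing into sterilized diluvial soil, with seed covered by roughly 1.5 cm of soil.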

[6] = tested on: Echinochloa crus-galli var. crus-galli; assay: Test Example 4: herbicidal effect by soil treatment (symbol H); conditions: 320 g/ha
Procedure, shortened: as §1

Scirpus juncoides = assay: Test Example 1: herbicidal activity, application before weed generation in submerged conditions (symbol B); conditions: application herbicide amount 320 g/ha
Procedure, shortened: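 Flooded alluvial soil (4 cm water) was mixed-sown with the three weed species, and 2.5-leaf rice seedlings were transplanted. On sowing day, a water-diluted emulsion at a predetermined rate was applied to the water surface. After 3 weeks in a 25–30 °C greenhouse, effect was scored 0–5.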

rapeseed = assay: Test Example 5: effect on crop by foliage application, plastic box (symbol g); conditions: 320 g/ha, 3 weeks after application
Procedure, shortened: as §3

Digitaria ciliaris = assay: Test Example 4: herbicidal effect by soil treatment (symbol F); conditions: 320 g/ha
Procedure, shortened: as §1

beet = assay: Test Example 5: effect on crop by foliage application, plastic box (symbol f); conditions: 320 g/ha, 3 weeks after application
Procedure, shortened: as §3

Setaria viridis [7] = assay: Test Example 5: herbicidal effect by foliage application, plastic box (symbol G); conditions: 320 g/ha, 3 weeks after application
Procedure, shortened: as §2

SMILES	effect on crop b (directly sowed rice plant), grade 0-5 [1]	P: Stellaria media, herbicidal effect grade (Stellaria media)	d: soybean, effect grade on crop (soybean [2])	R: Veronica persica, herbicidal effect grade (Veronica persica)	Herbicidal effect grade, C: Monochoria vaginalis (Monochoria vaginalis)	Q: Galium spurium, herbicidal effect (criteria 0-5) (Galium spurium)	G: Setaria viridis, herbicidal effect grade (Setaria viridis [3])	H: Echinochloa crus-galli var. crus-galli, herbicidal effect (criteria 0-5) [4]	d: soybean, effect on crop (criteria 0-5) (soybean [5])	H: Echinochloa crus-galli var. crus-galli, herbicidal effect grade [6]	Herbicidal effect grade, B: Scirpus juncoides (Scirpus juncoides)	g: rapeseed, effect on crop (criteria 0-5) (rapeseed)	F: Digitaria ciliaris, herbicidal effect grade (Digitaria ciliaris)	f: beet, effect on crop (criteria 0-5) (beet)	G: Setaria viridis, herbicidal effect (criteria 0-5) (Setaria viridis [7])
C=C(C)CN(CC)C(=O)OC1=C(c2c(C)cc(C)cc2C)C(=O)C(CC(C)=NOC)C1 (stereo not drawn) [1-130]	5 (Herbicidal ratio of 90% or more (almost completely withered))	0 (Herbicidal ratio of 5% or lower (almost no effect))	0 (Herbicidal ratio of 5% or lower (almost no effect))	0 (Herbicidal ratio of 5% or lower (almost no effect))	0 (Herbicidal ratio of 5% or lower (almost no effect))	0 (Herbicidal ratio of 5% or lower (almost no effect))	0 (Herbicidal ratio of 5% or lower (almost no effect))	5 (Herbicidal ratio of 90% or more (almost completely withered))	1 (Herbicidal ratio of 5% or higher and lower than 20%)	0 (Herbicidal ratio of 5% or lower (almost no effect))	0 (Herbicidal ratio of 5% or lower (almost no effect))	5 (Herbicidal ratio of 90% or more (almost completely withered))	0 (Herbicidal ratio of 5% or lower (almost no effect))	0 (Herbicidal ratio of 5% or lower (almost no effect))	5 (Herbicidal ratio of 90% or more (almost completely withered))
CC(CC1CC(O)=C(c2c(C)cc(C)cc2C)C1=O)=NOCC(C)Cl (stereo not drawn) [1-121]	5 (Herbicidal ratio of 90% or more (almost completely withered))	0 (Herbicidal ratio of 5% or lower (almost no effect))	0 (Herbicidal ratio of 5% or lower (almost no effect))	0 (Herbicidal ratio of 5% or lower (almost no effect))	1 (Herbicidal ratio of 5% or higher and lower than 20%)	0 (Herbicidal ratio of 5% or lower (almost no effect))	5 (Herbicidal ratio of 90% or more (almost completely withered))	5 (Herbicidal ratio of 90% or more (almost completely withered))	2 (Herbicidal ratio of 20% or higher and lower than 40%)	5 (Herbicidal ratio of 90% or more (almost completely withered))	5 (Herbicidal ratio of 90% or more (almost completely withered))	5 (Herbicidal ratio of 90% or more (almost completely withered))	5 (Herbicidal ratio of 90% or more (almost completely withered))	0 (Herbicidal ratio of 5% or lower (almost no effect))	5 (Herbicidal ratio of 90% or more (almost completely withered))
CC(CC1CC(O)=C(c2c(C)cc(C)cc2C)C1=O)=NOCCS(C)(=O)=O (stereo not drawn) [1-110]	5 (Herbicidal ratio of 90% or more (almost completely withered))	0 (Herbicidal ratio of 5% or lower (almost no effect))	0 (Herbicidal ratio of 5% or lower (almost no effect))	0 (Herbicidal ratio of 5% or lower (almost no effect))	0 (Herbicidal ratio of 5% or lower (almost no effect))	3 (Herbicidal ratio of 40% or higher and lower than 70%)	5 (Herbicidal ratio of 90% or more (almost completely withered))	5 (Herbicidal ratio of 90% or more (almost completely withered))	0 (Herbicidal ratio of 5% or lower (almost no effect))	5 (Herbicidal ratio of 90% or more (almost completely withered))	0 (Herbicidal ratio of 5% or lower (almost no effect))	5 (Herbicidal ratio of 90% or more (almost completely withered))	5 (Herbicidal ratio of 90% or more (almost completely withered))	0 (Herbicidal ratio of 5% or lower (almost no effect))	5 (Herbicidal ratio of 90% or more (almost completely withered))
CC(CC1CC(O)=C(c2c(C)cc(C)cc2C)C1=O)=NOCC[S+](C)[O-] (stereo not drawn) [1-125]	5 (Herbicidal ratio of 90% or more (almost completely withered))	0 (Herbicidal ratio of 5% or lower (almost no effect))	0 (Herbicidal ratio of 5% or lower (almost no effect))	0 (Herbicidal ratio of 5% or lower (almost no effect))	0 (Herbicidal ratio of 5% or lower (almost no effect))	3 (Herbicidal ratio of 40% or higher and lower than 70%)	5 (Herbicidal ratio of 90% or more (almost completely withered))	5 (Herbicidal ratio of 90% or more (almost completely withered))	0 (Herbicidal ratio of 5% or lower (almost no effect))	5 (Herbicidal ratio of 90% or more (almost completely withered))	0 (Herbicidal ratio of 5% or lower (almost no effect))	3 (Herbicidal ratio of 40% or higher and lower than 70%)	5 (Herbicidal ratio of 90% or more (almost completely withered))	0 (Herbicidal ratio of 5% or lower (almost no effect))	5 (Herbicidal ratio of 90% or more (almost completely withered))
CC(CC1CC(O)=C(c2c(C)cc(C)cc2C)C1=O)=NOCc1ccccc1C(F)(F)F (stereo not drawn) [1-116]	5 (Herbicidal ratio of 90% or more (almost completely withered))	0 (Herbicidal ratio of 5% or lower (almost no effect))	0 (Herbicidal ratio of 5% or lower (almost no effect))	0 (Herbicidal ratio of 5% or lower (almost no effect))	2 (Herbicidal ratio of 20% or higher and lower than 40%)	1 (Herbicidal ratio of 5% or higher and lower than 20%)	3 (Herbicidal ratio of 40% or higher and lower than 70%)	5 (Herbicidal ratio of 90% or more (almost completely withered))	3 (Herbicidal ratio of 40% or higher and lower than 70%)	3 (Herbicidal ratio of 40% or higher and lower than 70%)	4 (Herbicidal ratio of 70% or higher and lower than 90%)	5 (Herbicidal ratio of 90% or more (almost completely withered))	1 (Herbicidal ratio of 5% or higher and lower than 20%)	0 (Herbicidal ratio of 5% or lower (almost no effect))	5 (Herbicidal ratio of 90% or more (almost completely withered))
